Source: US8415469B2, “Compounds and methods for kinase modulation, and indications therefor” (Plexxikon Inc., priority 2005, dated 2013)

What was measured:
Type in all cases: biochemical
[1] = target: T1, Abl (Homo sapiens, UniProt P00519); assay: AlphaScreen kinase assay, Abl; conditions: read-out: activity toward kinase Abl, IC50
T1 construct: P1121. pET-SPEC BI-PTP Abl G227-V515-X; His6 (N); made in house; host or cells: E. coli (PTP1B co-expressed)
T1 sequence (P00519 with tags, fused parts or gaps): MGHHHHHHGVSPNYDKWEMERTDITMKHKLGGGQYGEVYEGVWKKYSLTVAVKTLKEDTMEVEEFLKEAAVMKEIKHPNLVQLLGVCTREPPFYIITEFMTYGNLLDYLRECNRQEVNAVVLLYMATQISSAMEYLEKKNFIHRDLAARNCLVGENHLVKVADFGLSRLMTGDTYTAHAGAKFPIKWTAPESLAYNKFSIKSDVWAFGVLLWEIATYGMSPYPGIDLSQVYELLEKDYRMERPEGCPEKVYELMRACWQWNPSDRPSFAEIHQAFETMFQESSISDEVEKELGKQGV
Description: (§1) AlphaScreen assay was used to screen additional kinases. The assay is similarly dependent on the phosphorylation of a peptide substrate. In this assay, an antibody that recognizes phosphorylated substrate is bound to an acceptor bead. The peptide substrate is attached to biotin, which binds to a donor head that contains streptavidin. Thus phosphorylated substrate is bound by antibody and streptavidin, bringing the donor and acceptor heads into close proximity when kinase is not inhibited. The donor produces singlet oxygen which results in emission from the acceptor when they are in close proximity. Conversely, when kinase is inhibited, the donor and acceptor beads are not associated and the emission from the acceptor is reduced.
(§2) AlphaScreen assays were done using compounds dissolved in DMSO to a concentration of 20 mM. The compounds were diluted accordingly to the desired final concentrations in each sample well, using 1:3 serial dilution for a total of 8 concentration points.

[2] = target: T2, B-Raf V600E (Homo sapiens, UniProt P15056, V600E); assay: AlphaScreen kinase assay, B-Raf V600E; conditions: read-out: IC50, activity toward kinase B-Raf V600E
T2 construct: P4254. pFastBacBD-CDC37 BRAF D437-K722-X, V600E; His6 with pFastBac HT leader (TEV site) (N); made in house; host or cells: Sf9 (baculovirus; chaperone CDC37 co-expressed)
T2 sequence (P15056 with tags, fused parts or gaps V600E): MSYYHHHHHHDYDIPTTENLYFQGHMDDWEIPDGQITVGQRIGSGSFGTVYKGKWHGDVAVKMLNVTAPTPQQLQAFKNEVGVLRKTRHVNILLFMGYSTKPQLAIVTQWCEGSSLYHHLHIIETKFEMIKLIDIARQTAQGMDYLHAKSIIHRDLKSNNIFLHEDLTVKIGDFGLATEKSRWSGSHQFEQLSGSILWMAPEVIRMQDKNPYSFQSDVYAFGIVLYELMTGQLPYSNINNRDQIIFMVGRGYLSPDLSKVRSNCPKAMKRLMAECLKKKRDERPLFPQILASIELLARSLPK

[3] = target: T3, FGFR1 (Homo sapiens, UniProt P11362, C488A/C584S); assay: AlphaScreen kinase assay, FGFR1; conditions: read-out: IC50, activity toward kinase FGFR
T3 construct: P1351.pET N6 BI-PTP FGFR A458-E765-X C488A, C584S; made in house; host or cells: E. coli (PTP1B co-expressed)
T3 sequence (P11362 458-765 C488A/C584S): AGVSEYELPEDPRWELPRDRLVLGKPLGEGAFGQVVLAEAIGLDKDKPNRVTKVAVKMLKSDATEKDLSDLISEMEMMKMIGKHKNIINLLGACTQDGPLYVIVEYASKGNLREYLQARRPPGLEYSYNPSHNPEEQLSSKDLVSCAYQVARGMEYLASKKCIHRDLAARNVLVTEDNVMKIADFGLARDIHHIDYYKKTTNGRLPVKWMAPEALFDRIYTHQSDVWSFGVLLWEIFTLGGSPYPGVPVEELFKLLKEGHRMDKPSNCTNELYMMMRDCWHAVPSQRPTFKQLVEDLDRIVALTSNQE

[4] = target: T4, Flt1 (Homo sapiens, UniProt P17948); assay: AlphaScreen kinase assay, Flt1; conditions: read-out: IC50, activity toward kinase Flt1
T4 construct: P1826.pETN6 BI-PTP FLT1 M799-D1165-X WT; His6 (N); made in house; host or cells: E. coli (PTP1B co-expressed)
T4 sequence (P17948 with tags, fused parts or gaps): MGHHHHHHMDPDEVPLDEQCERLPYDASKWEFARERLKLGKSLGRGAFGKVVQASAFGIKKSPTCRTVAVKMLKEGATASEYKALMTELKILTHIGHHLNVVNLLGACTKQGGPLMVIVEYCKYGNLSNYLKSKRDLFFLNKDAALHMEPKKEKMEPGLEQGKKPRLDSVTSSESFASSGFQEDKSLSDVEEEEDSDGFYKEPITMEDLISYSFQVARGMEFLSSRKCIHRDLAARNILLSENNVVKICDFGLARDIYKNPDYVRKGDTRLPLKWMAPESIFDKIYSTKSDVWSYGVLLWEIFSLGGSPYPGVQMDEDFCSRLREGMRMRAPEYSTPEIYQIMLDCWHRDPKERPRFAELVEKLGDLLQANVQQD

[5] = target: T5, Fms (Homo sapiens, UniProt P07333); assay: AlphaScreen kinase assay, Fms; conditions: read-out: IC50, activity toward kinase Fms
T5 construct: purchased Upstate Biotechnology
T5 sequence (P07333 20-972): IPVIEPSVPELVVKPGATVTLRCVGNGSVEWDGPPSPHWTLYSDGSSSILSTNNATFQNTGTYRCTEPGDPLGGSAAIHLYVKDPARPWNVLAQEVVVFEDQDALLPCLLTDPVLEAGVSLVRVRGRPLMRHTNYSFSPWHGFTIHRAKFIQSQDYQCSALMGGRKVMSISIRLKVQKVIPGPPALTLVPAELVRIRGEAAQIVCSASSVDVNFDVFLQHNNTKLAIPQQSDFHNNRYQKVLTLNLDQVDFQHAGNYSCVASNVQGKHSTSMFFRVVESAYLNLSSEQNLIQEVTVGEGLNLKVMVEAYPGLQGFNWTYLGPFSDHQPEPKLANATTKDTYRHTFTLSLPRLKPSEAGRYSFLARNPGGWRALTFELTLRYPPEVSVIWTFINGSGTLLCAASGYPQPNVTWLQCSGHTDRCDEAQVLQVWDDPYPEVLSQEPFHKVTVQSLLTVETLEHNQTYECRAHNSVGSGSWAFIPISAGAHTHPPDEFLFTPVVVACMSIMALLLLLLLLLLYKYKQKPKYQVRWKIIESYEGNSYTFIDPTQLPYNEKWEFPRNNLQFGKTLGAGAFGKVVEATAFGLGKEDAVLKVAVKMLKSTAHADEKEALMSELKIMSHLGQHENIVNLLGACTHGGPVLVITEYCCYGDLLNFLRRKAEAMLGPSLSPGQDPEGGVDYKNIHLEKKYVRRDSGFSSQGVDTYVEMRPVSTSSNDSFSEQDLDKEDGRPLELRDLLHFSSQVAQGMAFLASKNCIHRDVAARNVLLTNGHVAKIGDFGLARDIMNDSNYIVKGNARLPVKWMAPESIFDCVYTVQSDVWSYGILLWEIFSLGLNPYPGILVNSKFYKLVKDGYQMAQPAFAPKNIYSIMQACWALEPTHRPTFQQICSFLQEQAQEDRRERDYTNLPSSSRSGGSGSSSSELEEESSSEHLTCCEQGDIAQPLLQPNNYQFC

[6] = target: T6, Jnk1 (Homo sapiens, UniProt P45983); assay: AlphaScreen kinase assay, Jnk1; conditions: read-out: IC50, activity toward kinase Jnk1
T6 construct: purchased Upstate Biotechnology
T6 sequence (P45983 whole entry): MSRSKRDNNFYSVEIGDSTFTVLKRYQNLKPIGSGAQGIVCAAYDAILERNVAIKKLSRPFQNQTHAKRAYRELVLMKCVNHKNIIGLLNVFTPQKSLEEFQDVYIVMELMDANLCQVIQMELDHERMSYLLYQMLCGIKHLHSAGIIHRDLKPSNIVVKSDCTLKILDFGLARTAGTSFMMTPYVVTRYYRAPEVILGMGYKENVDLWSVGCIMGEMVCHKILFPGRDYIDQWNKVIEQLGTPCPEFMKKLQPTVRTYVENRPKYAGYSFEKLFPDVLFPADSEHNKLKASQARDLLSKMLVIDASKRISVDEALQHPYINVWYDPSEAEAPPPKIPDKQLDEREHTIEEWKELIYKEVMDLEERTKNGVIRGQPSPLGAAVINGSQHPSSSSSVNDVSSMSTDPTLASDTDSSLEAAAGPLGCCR

[7] = target: T7, Jnk3 (Homo sapiens, UniProt P53779); assay: AlphaScreen kinase assay, Jnk3; conditions: read-out: IC50, activity toward kinase Jnk3
T7 construct: purchased Upstate Biotechnology
T7 sequence (P53779 whole entry): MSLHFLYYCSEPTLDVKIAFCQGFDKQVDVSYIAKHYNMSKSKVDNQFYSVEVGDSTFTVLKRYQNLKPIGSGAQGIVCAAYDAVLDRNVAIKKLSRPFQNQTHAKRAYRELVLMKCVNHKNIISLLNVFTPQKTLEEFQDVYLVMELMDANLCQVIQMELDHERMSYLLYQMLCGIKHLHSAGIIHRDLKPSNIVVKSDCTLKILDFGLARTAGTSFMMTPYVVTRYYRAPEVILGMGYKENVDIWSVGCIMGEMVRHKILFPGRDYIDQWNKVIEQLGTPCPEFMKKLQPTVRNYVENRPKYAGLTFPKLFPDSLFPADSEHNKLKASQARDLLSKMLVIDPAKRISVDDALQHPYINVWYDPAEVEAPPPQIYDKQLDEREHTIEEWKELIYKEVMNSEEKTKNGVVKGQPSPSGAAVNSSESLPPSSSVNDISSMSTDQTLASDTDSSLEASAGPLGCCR

[8] = target: T8, Kit (Homo sapiens, UniProt P10721); assay: AlphaScreen kinase assay, Kit; conditions: read-out: IC50, activity toward kinase Kit
T8 construct: P1332.N6 BI PTP KIT M552-K948-X COD; His6 (N); made in house; host or cells: E. coli (PTP1B co-expressed)
T8 sequence (P10721 with tags, fused parts or gaps): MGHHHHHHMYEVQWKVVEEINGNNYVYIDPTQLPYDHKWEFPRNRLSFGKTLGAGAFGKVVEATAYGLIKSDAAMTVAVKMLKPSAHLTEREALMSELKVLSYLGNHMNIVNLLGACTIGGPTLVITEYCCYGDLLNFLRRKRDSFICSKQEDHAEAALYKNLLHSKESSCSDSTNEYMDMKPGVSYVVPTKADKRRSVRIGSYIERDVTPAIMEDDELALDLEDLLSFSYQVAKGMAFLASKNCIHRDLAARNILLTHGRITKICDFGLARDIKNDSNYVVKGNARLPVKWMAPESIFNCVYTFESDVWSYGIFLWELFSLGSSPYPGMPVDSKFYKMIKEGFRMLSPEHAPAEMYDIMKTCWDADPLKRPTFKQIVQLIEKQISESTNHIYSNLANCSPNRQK

[9] = target: T9, Ret (Homo sapiens, UniProt P07949); assay: AlphaScreen kinase assay, Ret; conditions: read-out: IC50, activity toward kinase Ret
T9 construct: P1378.pET-SF BI-PTP RET H661-R1012 HIS; made in house
T9 sequence (P07949 with tags, fused parts or gaps): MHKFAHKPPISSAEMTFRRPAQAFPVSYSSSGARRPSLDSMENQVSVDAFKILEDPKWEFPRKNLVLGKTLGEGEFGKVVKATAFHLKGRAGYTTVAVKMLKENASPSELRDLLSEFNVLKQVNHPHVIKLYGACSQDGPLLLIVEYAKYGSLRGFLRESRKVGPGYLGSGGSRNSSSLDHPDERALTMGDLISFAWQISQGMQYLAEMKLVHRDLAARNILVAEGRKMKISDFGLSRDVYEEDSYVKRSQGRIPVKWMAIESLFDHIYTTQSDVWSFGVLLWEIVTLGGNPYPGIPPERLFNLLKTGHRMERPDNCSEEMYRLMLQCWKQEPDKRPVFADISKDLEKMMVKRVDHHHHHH

[10] = target: T10, Src (Homo sapiens, UniProt P12931); assay: AlphaScreen kinase assay, Src; conditions: read-out: IC50, activity toward kinase Src
T10 construct: P1144. pET-N6 BI-PTP SRC V86-L536-X; made in house

[11] = target: T11, Pyk2 (Homo sapiens, UniProt Q14289); assay: AlphaScreen kinase assay, Pyk2; conditions: read-out: IC50, activity toward kinase Pyk2
T11 construct: purchased Upstate Biotechnology
T11 sequence (Q14289 whole entry): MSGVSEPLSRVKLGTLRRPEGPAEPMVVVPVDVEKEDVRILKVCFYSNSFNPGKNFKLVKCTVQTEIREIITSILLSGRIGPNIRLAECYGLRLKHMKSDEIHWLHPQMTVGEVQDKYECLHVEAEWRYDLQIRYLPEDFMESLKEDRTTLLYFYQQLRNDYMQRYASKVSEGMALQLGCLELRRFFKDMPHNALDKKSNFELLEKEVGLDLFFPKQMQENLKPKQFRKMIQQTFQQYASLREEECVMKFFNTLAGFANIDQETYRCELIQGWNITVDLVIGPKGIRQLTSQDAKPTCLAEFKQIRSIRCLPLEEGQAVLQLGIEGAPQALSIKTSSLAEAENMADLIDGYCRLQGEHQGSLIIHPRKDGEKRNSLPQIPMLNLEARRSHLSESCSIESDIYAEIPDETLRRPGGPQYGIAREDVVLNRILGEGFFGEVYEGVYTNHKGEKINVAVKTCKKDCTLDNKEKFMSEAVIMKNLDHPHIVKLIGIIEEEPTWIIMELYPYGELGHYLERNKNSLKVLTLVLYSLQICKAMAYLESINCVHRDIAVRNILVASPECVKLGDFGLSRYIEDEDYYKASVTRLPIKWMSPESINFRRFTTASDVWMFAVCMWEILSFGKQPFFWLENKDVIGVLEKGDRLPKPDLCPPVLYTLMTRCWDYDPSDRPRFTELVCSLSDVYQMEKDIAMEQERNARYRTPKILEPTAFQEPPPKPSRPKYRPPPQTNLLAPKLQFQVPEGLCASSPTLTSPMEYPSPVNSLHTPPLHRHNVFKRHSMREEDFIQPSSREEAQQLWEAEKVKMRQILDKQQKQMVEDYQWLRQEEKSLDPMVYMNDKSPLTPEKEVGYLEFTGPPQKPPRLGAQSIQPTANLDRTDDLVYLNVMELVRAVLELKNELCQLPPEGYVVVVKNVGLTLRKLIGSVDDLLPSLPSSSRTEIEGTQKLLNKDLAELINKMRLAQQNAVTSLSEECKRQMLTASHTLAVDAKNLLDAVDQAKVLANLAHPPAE

[12] = target: Akt3 (Homo sapiens, UniProt Q9Y243); assay: AlphaScreen kinase assay, Akt3; conditions: read-out: IC50, activity toward kinase Akt3
Sequence of Akt3 (Q9Y243 whole entry): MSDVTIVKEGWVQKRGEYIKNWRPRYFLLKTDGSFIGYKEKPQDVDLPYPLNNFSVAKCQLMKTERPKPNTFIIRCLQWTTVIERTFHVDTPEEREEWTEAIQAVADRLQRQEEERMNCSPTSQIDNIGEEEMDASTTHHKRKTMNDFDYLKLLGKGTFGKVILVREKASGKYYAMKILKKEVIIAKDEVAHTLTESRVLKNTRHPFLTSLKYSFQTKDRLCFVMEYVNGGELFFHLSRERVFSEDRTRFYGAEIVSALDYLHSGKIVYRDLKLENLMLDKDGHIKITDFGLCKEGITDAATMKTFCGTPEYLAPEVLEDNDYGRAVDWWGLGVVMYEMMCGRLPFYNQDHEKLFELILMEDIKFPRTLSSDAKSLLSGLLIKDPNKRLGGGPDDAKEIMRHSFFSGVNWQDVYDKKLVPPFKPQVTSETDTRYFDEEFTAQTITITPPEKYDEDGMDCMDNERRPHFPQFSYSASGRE
Description: as §1, §2

[13] = target: MAP4K4 (Homo sapiens, UniProt O95819); assay: AlphaScreen kinase assay, MAP4K4; conditions: read-out: IC50, activity toward kinase MAP4K4
[14] = target: T12, B-Raf (Homo sapiens, UniProt P15056); assay: AlphaScreen kinase assay, B-Raf; conditions: read-out: IC50, activity toward kinase B-Raf
T12 construct: purchased Upstate Biotechnology

[15] = target: T13, c-Raf-1 (Homo sapiens, UniProt P04049); assay: AlphaScreen kinase assay, c-Raf-1; conditions: read-out: IC50, activity toward kinase c-Raf-1
T13 construct: purchased Upstate Biotechnology
T13 sequence (P04049 whole entry): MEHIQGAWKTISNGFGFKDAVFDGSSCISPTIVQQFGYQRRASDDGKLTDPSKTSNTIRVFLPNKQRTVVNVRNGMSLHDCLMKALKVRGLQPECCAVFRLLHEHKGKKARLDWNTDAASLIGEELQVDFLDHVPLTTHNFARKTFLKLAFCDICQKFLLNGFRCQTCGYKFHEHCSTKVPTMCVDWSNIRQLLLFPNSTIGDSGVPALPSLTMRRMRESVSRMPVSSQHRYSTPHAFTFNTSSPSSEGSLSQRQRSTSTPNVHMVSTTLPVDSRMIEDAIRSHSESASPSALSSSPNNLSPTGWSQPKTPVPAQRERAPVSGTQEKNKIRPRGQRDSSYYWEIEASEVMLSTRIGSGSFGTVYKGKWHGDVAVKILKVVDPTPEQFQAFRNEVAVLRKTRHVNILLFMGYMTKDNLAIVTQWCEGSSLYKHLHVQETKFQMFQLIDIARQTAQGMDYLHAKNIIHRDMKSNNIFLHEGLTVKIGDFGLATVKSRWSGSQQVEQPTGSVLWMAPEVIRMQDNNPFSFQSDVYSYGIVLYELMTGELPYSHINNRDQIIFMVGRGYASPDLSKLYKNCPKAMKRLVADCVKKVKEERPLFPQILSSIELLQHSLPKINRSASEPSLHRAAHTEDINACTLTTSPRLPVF

[16] = target: T14, Jnk2 (Homo sapiens, UniProt P45984); assay: AlphaScreen kinase assay, Jnk2; conditions: read-out: IC50, activity toward kinase Jnk2
T14 construct: purchased Roche Protein Expression Group (Indianapolis, IN)
Method in brief: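 Compounds in DMSO (20 mM stock) were diluted 1:3 across 8 points. Each kinase phosphorylated a biotin-labelled peptide. Signal generated when donor and acceptor beads came close via antibody binding of phosphorylated substrate.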

[17] = target: T15, Kdr (Homo sapiens, UniProt P35968); assay: Z'-Lyte FRET kinase assay (Invitrogen), Kdr; conditions: read-out: IC50, activity toward kinase Kdr
T15 construct: purchased Invitrogen (assay run by Invitrogen)

[18] = target: T16, Fak (Homo sapiens, UniProt Q05397); assay: AlphaScreen kinase assay, Fak; conditions: read-out: IC50, activity toward kinase Fak
T16 construct: P1358.pFastBacHtb FAK S411-Q686-X; His6 with pFastBacHTb leader (TEV site) (N); made in house; host or cells: Sf9 (baculovirus)

[19] = target: T17, Btk (Homo sapiens, UniProt Q06187); assay: Z'-Lyte FRET kinase assay (Invitrogen), Btk; conditions: read-out: IC50, activity toward kinase Btk
T17 construct: purchased Invitrogen (assay run by Invitrogen)

Structure (SMILES)	IC50 [1]	IC50 [2]	IC50 [3]	IC50 [7]	IC50 [8]	IC50 [9]	IC50 [10]	IC50 [11]	IC50 [12]	IC50 [14]	IC50 [15]	also measured
c1csc(Sc2c[nH]c3ncccc23)c1 [Compound P-0529]	≤ 10 µM	–	–	–	–	–	–	≤ 10 µM	–	–	–	–
CCN(CC)c1ccc(Nc2ccnc3[nH]ccc23)cc1 [Compound P-0866]	–	≤ 10 µM	–	–	≤ 10 µM	–	≤ 10 µM	≤ 10 µM	≤ 10 µM	≤ 10 µM	≤ 10 µM	IC50 [4]: ≤ 10 µM
Clc1cccc(Nc2ccnc3[nH]ccc23)c1 [Compound P-0924]	–	–	–	–	≤ 10 µM	–	–	≤ 10 µM	≤ 10 µM	≤ 10 µM	≤ 10 µM	–
COc1ccc(S(=O)(=O)Nc2ccc(F)c(C(=O)c3c[nH]c4ncccc34)c2F)cc1 [Compound P-0958, N-[2,4-Difluoro-3-(1H-pyrrolo[2,3-b]pyridine-3-carbonyl)-phenyl]-4-methoxy-benzenesulfonamide]	–	≤ 10 µM	≤ 10 µM	–	≤ 10 µM	–	≤ 10 µM	–	≤ 10 µM	≤ 10 µM	≤ 10 µM	IC50 [4]: ≤ 10 µM; IC50 [5]: ≤ 10 µM; IC50 [6]: ≤ 10 µM; IC50 [13]: ≤ 10 µM
Clc1ccc(Nc2ccnc3[nH]ccc23)cc1 [Compound P-0978]	–	–	–	–	≤ 10 µM	–	–	≤ 10 µM	≤ 10 µM	≤ 10 µM	≤ 10 µM	–
CCCOc1ccc(Nc2cnc3[nH]ccc3c2)cc1 [Compound P-1010]	–	≤ 10 µM	–	≤ 10 µM	≤ 10 µM	–	≤ 10 µM	≤ 10 µM	≤ 10 µM	–	–	IC50 [4]: ≤ 10 µM
Cc1ccccc1C(=O)c1c[nH]c2ncc(-c3ccc(C(N)=O)cc3)cc12 [Compound P-1011]	≤ 10 µM	–	–	≤ 10 µM	–	≤ 10 µM	–	–	–	–	–	–
CCOc1ccc(Nc2cnc3[nH]ccc3c2)cc1 [Compound P-1018]	–	≤ 10 µM	≤ 10 µM	≤ 10 µM	≤ 10 µM	–	–	≤ 10 µM	≤ 10 µM	–	–	IC50 [4]: ≤ 10 µM
Cc1cc(C(=O)c2c[nH]c3ncc(-c4cccc(N)c4)cc23)n(C)n1 [Compound P-1115]	≤ 10 µM	–	–	–	–	≤ 10 µM	–	–	–	–	–	–
Cc1ccc(S(=O)(=O)NCc2c[nH]c3ncc(-c4ccsc4)cc23)cc1 [Compound P-1127]	≤ 10 µM	–	–	–	–	–	–	–	–	–	–	–
CCCS(=O)(=O)Nc1ccc(F)c(Cc2c[nH]c3ncc(C(C)C)cc23)c1F [Compound P-1288]	–	≤ 10 µM	≤ 10 µM	–	–	–	≤ 10 µM	≤ 10 µM	≤ 10 µM	≤ 10 µM	≤ 10 µM	IC50 [18]: ≤ 10 µM; IC50 [6]: ≤ 10 µM
NC(=O)c1cccc(-c2cnc3[nH]cc(C(=O)c4ccc(O)cc4F)c3c2)c1 [Compound P-1459]	–	≤ 10 µM	≤ 10 µM	–	–	–	≤ 10 µM	–	≤ 10 µM	≤ 10 µM	–	IC50 [19]: ≤ 10 µM; IC50 [18]: ≤ 10 µM; IC50 [5]: ≤ 10 µM; IC50 [6]: ≤ 10 µM

Second part, led by results:

IC50 [1]	IC50 [2]	IC50 [3]	IC50 [7]	IC50 [8]	IC50 [9]	IC50 [10]	IC50 [11]	IC50 [12]	IC50 [14]	IC50 [15]	Structure (SMILES)	also measured
≤ 10 µM	≤ 10 µM	≤ 10 µM	≤ 10 µM	≤ 10 µM	≤ 10 µM	≤ 10 µM	–	–	–	–	Cc1ccccc1C(=O)c1c[nH]c2ncc(-c3ccsc3)cc12 [Compound P-0244]	IC50 [4]: ≤ 10 µM; IC50 [5]: ≤ 10 µM; IC50 [6]: ≤ 10 µM
–	≤ 10 µM	–	–	–	–	–	–	≤ 10 µM	–	–	COc1ccc(-c2c[nH]c3ncccc23)cc1OC1CCCC1 [Compound P-0573]	IC50 [13]: ≤ 10 µM
≤ 10 µM	≤ 10 µM	–	≤ 10 µM	≤ 10 µM	≤ 10 µM	–	–	–	≤ 10 µM	≤ 10 µM	O=C(c1cc(O)ccc1F)c1c[nH]c2ncc(-c3ccsc3)cc12 [Compound P-0604]	–
≤ 10 µM	≤ 10 µM	≤ 10 µM	–	≤ 10 µM	≤ 10 µM	≤ 10 µM	–	–	–	–	Cc1ccccc1C(=O)c1c[nH]c2ncc(-c3cccnc3)cc12 [Compound P-0623]	IC50 [16]: ≤ 10 µM; IC50 [17]: ≤ 10 µM
≤ 10 µM	≤ 10 µM	≤ 10 µM	≤ 10 µM	≤ 10 µM	≤ 10 µM	–	–	–	–	–	Cc1ccc(F)cc1C(=O)c1c[nH]c2ncc(-c3ccsc3)cc12 [Compound P-0671]	–
≤ 10 µM	≤ 10 µM	≤ 10 µM	–	≤ 10 µM	≤ 10 µM	–	–	–	≤ 10 µM	–	Cc1ccc(F)cc1C(=O)c1c[nH]c2ncc(-c3cccnc3)cc12 [Compound P-0693]	–
≤ 10 µM	≤ 10 µM	–	–	≤ 10 µM	≤ 10 µM	–	–	–	≤ 10 µM	≤ 10 µM	O=C(c1cc(O)ccc1F)c1c[nH]c2nccc(Cl)c12 [Compound P-0794]	–
–	≤ 10 µM	–	–	≤ 10 µM	–	–	≤ 10 µM	≤ 10 µM	≤ 10 µM	≤ 10 µM	CN(C)c1cccc(Nc2ccnc3[nH]ccc23)c1 [Compound P-0861]	–
